Measurements from ChEMBL document CHEMBL1150712, “Plant anticancer agents, XLIII. (E,E)-7, 12-dioxo-octadeca-8, 10-dien-1-oic acid (ostopanic acid), a cytotoxic fatty acid from Ostodes Paniculata” (1987).
In brackets after ≈: the same amount, converted by molar mass.

System: P388
Experiment: Cytotoxicity against mouse P388 cells
Assay type: functional
Details: read-out: ED50 (the source's name)

Compound: CCCCCCC(=O)/C=C/C=C/C(=O)CCCCCC(=O)O [OSTOPANIC ACID]
- EC50: 1.5 µg/mL (≈ 4.86 µM)
